# Read-outs that look alike come from different tables or passages of the source.
# Tests used:
# Format in all cases: cell-based, Escherichia coli
# E. coli ΔtolC = test: microbe, parasite or virus in culture; conditions: for MIC: Escherichia coli, 18 h, read-out: Minimum Inhibitory Concentration, ΔtolC; for Minimum inhibitory concentration (MIC), ΔtolC: Table 10, without pore, technical duplicate
# Outline: (§1)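 Turbidity (OD600, pre-incubation subtracted) defined growth after 18 h at 37 °C in MHB II. The inoculum was diluted 1/2000 from an OD600 ~1.0 PBS suspension of an overnight LB culture. Compounds were run as duplicate twofold dilutions.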
# [1] = tested on: wild-type E. coli K-12 str. BW25113; test: microbe, parasite or virus in culture; conditions: Escherichia coli
# Outline: as §1
# E. coli EKO-35 = test: microbe, parasite or virus in culture; conditions: for Fold change of MICs: EKO-35 compared to EKO-35 (reference); for MIC: Escherichia coli
# Outline: as §1
# EKO-35-Pore = test: MIC susceptibility profiling, porinated strain; conditions: for Fold changes of MICs: EKO-35-Pore compared to EKO-35-Pore (reference); for MIC: Escherichia coli, technical duplicate
# Outline: (§2)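 E. coli strains carrying a genomically integrated constitutive fhuA ΔC/Δ4L pore were grown 18 h in LB at 37 °C, then diluted 1/2000 in MHB II from OD600 ~1.0. Compounds were tested in duplicate, 2-fold serial titration, for 18 h at 37 °C with shaking. MIC came from OD600 with the pre-incubation background subtracted.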
# EKO-35 araC::mdtBC = test: MIC susceptibility profiling, efflux platform; conditions: for Fold change of MICs: EKO-35 araC::mdtBC compared to EKO-35
# Outline: as §1
# EKO-35 araC::mdtEF = test: MIC susceptibility profiling, efflux platform; conditions: for Fold change of MICs: EKO-35 araC::mdtEF compared to EKO-35
# Outline: as §1
# ΔtolC-Pore = test: microbe, parasite or virus in culture; conditions: for MIC: Escherichia coli, 18 h, read-out: Minimum inhibitory concentration, ΔtolC-Pore; for Minimum inhibitory concentration (MIC), Pore ΔtolC: Table 10, with pore, technical duplicate
# Outline: as §2
# wild-type (WT) K-12-Pore = test: microbe, parasite or virus in culture; conditions: Escherichia coli
# Outline: as §2
# EKO-35 araC::acrB Pore = test: MIC susceptibility profiling, porinated efflux platform; conditions: for Fold changes of MICs: EKO-35 araC::acr-B Pore compared to EKO-35-Pore
# Outline: as §2
# EKO-35 araC::emrAB Pore = test: as above; conditions: EKO-35 araC::emrAB Pore compared to EKO-35-Pore
# Outline: as §2
# EKO-35 araC::mdtBC Pore = test: as above; conditions: for Fold changes of MICs: EKO-35 araC::mdtBC Pore compared to EKO-35-Pore
# Outline: as §2
# EKO-35 araC::acrD Pore = test: as above; conditions: EKO-35 araC::acrD Pore compared to EKO-35-Pore
# Outline: as §2
# EKO-35 araC::macAB Pore = test: as above; conditions: for Fold changes of MICs: EKO-35 araC::macAB Pore compared to EKO-35-Pore
# Outline: as §2
# EKO-35 araC::acrEF Pore = test: as above; conditions: for Fold changes of MICs: EKO-35 araC::acrEF Pore compared to EKO-35-Pore
# Outline: as §2
# EKO-35 araC::emrKY Pore = test: as above; conditions: EKO-35 araC::emrKY Pore compared to EKO-35-Pore
# Outline: as §2
# EKO-35 araC::mdtEF Pore = test: as above; conditions: for Fold changes of MICs: EKO-35 araC::mdtEF Pore compared to EKO-35-Pore
# Outline: as §2
# EKO-35 araC::mexCD Pore = test: as above; conditions: for Fold changes of MICs: EKO-35 araC::mexCD Pore compared to EKO-35-Pore
# Outline: as §2
# [2] = tested on: EKO-35 araC::acrBD408A Pore; test: as above; conditions: for Fold changes of MICs: EKO-35 araC::acrBD408A Pore compared to EKO-35-Pore
# Outline: as §2
Structure (SMILES),MIC (E. coli ΔtolC) [µg/mL],"Minimum inhibitory concentration (MIC), ΔtolC (E. coli ΔtolC) [µg/mL]",Fold change of MICs (E. coli EKO-35) [fold],Fold changes of MICs (EKO-35-Pore) [fold],Fold change of MICs (EKO-35 araC::mdtBC) [fold],Fold change of MICs (EKO-35 araC::mdtEF) [fold],MIC (ΔtolC-Pore) [µg/mL],"Minimum inhibitory concentration (MIC), Pore ΔtolC (ΔtolC-Pore) [µg/mL]",Fold changes of MICs (EKO-35 araC::acrB Pore) [fold],Fold changes of MICs (EKO-35 araC::emrAB Pore) [fold],Fold changes of MICs (EKO-35 araC::mdtBC Pore) [fold],Fold changes of MICs (EKO-35 araC::acrD Pore) [fold],Fold changes of MICs (EKO-35 araC::macAB Pore) [fold],Fold changes of MICs (EKO-35 araC::acrEF Pore) [fold],Fold changes of MICs (EKO-35 araC::emrKY Pore) [fold],Fold changes of MICs (EKO-35 araC::mdtEF Pore) [fold],Fold changes of MICs (EKO-35 araC::mexCD Pore) [fold],Fold changes of MICs [2] [fold],also measured
COc1cc(Cc2cnc(N)nc2N)cc(OC)c1OC [trimethoprim],0.098,0.098,1,1,1,2,0.049,0.049,4,2,1,1,1,1,2,2,1,1,"MIC ([1]; BW25113, read-out: Minimum Inhibitory Concentration, K-12): 0.391 µg/mL; MIC ([1]; BW25113, read-out: Minimum inhibitory concentration (MIC), K-12): 0.391 µg/mL; MIC (E. coli EKO-35; EKO35, read-out: Minimum Inhibitory Concentration, EKO-35): 0.195 µg/mL; MIC (E. coli EKO-35; EKO35, read-out: Minimum inhibitory concentration (MIC), EKO-35): 0.195 µg/mL; MIC (wild-type (WT) K-12-Pore; read-out: Minimum inhibitory concentration (MIC), Pore K-12): 0.391 µg/mL; MIC (wild-type (WT) K-12-Pore; read-out: Minimum inhibitory concentration, K-12 (WT)-Pore): 0.391 µg/mL; MIC (EKO-35 araC::acrB Pore; Escherichia coli, Table 14A, porinated, technical duplicate, read-out: Minimum inhibitory concentration, EKO-35 araC::acrB Pore): 0.781 µg/mL; efflux pump-mediated resistance vs EKO-35-Pore (EKO-35 araC::acrEF Pore; AcrEF with the pore): impacted the ability of AcrEF to confer resistance"
CN[C@H](CC(C)C)C(=O)N[C@H]1C(=O)N[C@@H](CC(N)=O)C(=O)N[C@H]2C(=O)N[C@H]3C(=O)N[C@H](C(=O)N[C@H](C(=O)O)c4cc(O)cc(O)c4-c4cc3ccc4O)[C@H](O)c3ccc(c(Cl)c3)Oc3cc2cc(c3O[C@@H]2O[C@H](CO)[C@@H](O)[C@H](O)[C@H]2O[C@H]2C[C@](C)(N)[C@H](O)[C@H](C)O2)Oc2ccc(cc2Cl)[C@H]1O [vancomycin],200,200,1,1,1,1,6.25,6.25,1,1,0,1,1,1,1,1,1,1,"MIC ([1]; BW25113, Table 10, without pore, technical duplicate, read-out: Minimum inhibitory concentration (MIC), K-12): 200 µg/mL; MIC ([1]; BW25113, Table 13A, non-porinated, technical duplicate, read-out: Minimum Inhibitory Concentration, K-12): 200 µg/mL; MIC (E. coli EKO-35; EKO35, Table 10, without pore, technical duplicate, read-out: Minimum inhibitory concentration (MIC), EKO-35): 200 µg/mL; MIC (E. coli EKO-35; EKO35, Table 13A, non-porinated, technical duplicate, read-out: Minimum Inhibitory Concentration, EKO-35): 200 µg/mL; MIC (EKO-35-Pore; Table 10, with pore, read-out: Minimum inhibitory concentration (MIC), Pore EKO-35): 6.25 µg/mL; MIC (EKO-35-Pore; Table 14A, porinated, read-out: Minimum inhibitory concentration, EKO-35-Pore): 6.25 µg/mL; MIC (EKO-35 araC::mdtBC; Escherichia coli, Table 13B, non-porinated, technical duplicate, read-out: Minimum Inhibitory Concentration, EKO-35 araC::mdtBC): 200 µg/mL; MIC (EKO-35 araC::mdtEF; Escherichia coli, Table 13A, non-porinated, technical duplicate, read-out: Minimum Inhibitory Concentration, EKO-35 araC::mdtEF): 200 µg/mL; MIC (wild-type (WT) K-12-Pore; Table 10, with pore, technical duplicate, read-out: Minimum inhibitory concentration (MIC), Pore K-12): 3.12 µg/mL; MIC (wild-type (WT) K-12-Pore; Table 14A, porinated, technical duplicate, read-out: Minimum inhibitory concentration, K-12 (WT)-Pore): 3.12 µg/mL; MIC (EKO-35 araC::mdtBC Pore; Escherichia coli, EKO-35 araC::mdtBC Pore, technical duplicate, read-out: Minimum inhibitory concentration): 1.56 µg/mL; MIC (EKO-35 araC::macAB Pore; Escherichia coli, EKO-35 araC::macAB Pore, technical duplicate, read-out: Minimum inhibitory concentration): 6.25 µg/mL; MIC (EKO-35 araC::mdtEF Pore; Escherichia coli, Table 14A, porinated, technical duplicate, read-out: Minimum inhibitory concentration, EKO-35 araC::mdtEF Pore): 6.25 µg/mL; MIC (EKO-35 araC::mexCD Pore; Escherichia coli, EKO-35 araC::mexCD Pore, technical duplicate, read-out: Minimum inhibitory concentration): 6.25 µg/mL; MIC ([2]; Escherichia coli, EKO-35 araC::acrBD408A Pore, technical duplicate, read-out: Minimum inhibitory concentration): 6.25 µg/mL"

# Reference: patent US20230407243A1, “GENETIC PLATFORM TO INVESTIGATE THE FUNCTIONS OF BACTERIAL DRUG EFFLUX PUMPS” (priority 2022, published 2023)
